Test results taken from patent publication US6927039B2, “Enzymatic process” (Nanobiodesign Limited, priority 2000, dated 2005).
Read-outs that look alike come from different tables or passages of the source.

Experiments:
E.coli BL21(DE3) cells = assay: Toxicity of substrate to the whole cells used in the assay; format: cell-based
Description: When the initial rate of AA, LA, and SDS oxidation was plotted against substrate concentration a Michaelis-Menten-type curve was obtained as shown in FIG. 6. […] The kinetic parameters determined following the substrate-dependent NADPH oxidation with time in the whole-cell assay are given in Table 1. For all the three substrates the extent of uncoupling of P450 BM3 from substrate hydroxylation was also determined in a whole-cell assay. This was essentially an adaptation of the hydrogen peroxide quantification method of HRP with ABTS described for the experiments carried out on purified enzyme.
The potential lethal effect that high concentrations of substrate may have on whole cells (as in the case of arachidonic acid at concentrations higher than 170 μM, FIG. 7A.) can be overcome without loss of sensitivity by successive small additions of substrate. The increase of the A360 signal with subsequent additions of SDS to whole cells expressing P450 BM3 is reported in FIG. 8, where it can be observed how the increase in the absorbance becomes limited by the NADPH concentration. At 1.5 h after NADPH addition, when SDS is supplied periodically to the cells an increase of about 45% in the NADP^+ production is seen, which should correspond to a ratio of sample A360 signal/blank signal of about 30. […]

cytochrome P450 BM3 [1] = target: T1, cytochrome P450 BM3 (Priestia megaterium, UniProt P14779); assay: Substrate binding by spectral titration of the haem high spin band, purified enzyme (in vitro); design: expressed in transfected cells; host or cells: E. coli BL21(DE3) transformed with pT7Bm3Z; species or system Bacillus megaterium
T1 sequence (P14779 1-1049): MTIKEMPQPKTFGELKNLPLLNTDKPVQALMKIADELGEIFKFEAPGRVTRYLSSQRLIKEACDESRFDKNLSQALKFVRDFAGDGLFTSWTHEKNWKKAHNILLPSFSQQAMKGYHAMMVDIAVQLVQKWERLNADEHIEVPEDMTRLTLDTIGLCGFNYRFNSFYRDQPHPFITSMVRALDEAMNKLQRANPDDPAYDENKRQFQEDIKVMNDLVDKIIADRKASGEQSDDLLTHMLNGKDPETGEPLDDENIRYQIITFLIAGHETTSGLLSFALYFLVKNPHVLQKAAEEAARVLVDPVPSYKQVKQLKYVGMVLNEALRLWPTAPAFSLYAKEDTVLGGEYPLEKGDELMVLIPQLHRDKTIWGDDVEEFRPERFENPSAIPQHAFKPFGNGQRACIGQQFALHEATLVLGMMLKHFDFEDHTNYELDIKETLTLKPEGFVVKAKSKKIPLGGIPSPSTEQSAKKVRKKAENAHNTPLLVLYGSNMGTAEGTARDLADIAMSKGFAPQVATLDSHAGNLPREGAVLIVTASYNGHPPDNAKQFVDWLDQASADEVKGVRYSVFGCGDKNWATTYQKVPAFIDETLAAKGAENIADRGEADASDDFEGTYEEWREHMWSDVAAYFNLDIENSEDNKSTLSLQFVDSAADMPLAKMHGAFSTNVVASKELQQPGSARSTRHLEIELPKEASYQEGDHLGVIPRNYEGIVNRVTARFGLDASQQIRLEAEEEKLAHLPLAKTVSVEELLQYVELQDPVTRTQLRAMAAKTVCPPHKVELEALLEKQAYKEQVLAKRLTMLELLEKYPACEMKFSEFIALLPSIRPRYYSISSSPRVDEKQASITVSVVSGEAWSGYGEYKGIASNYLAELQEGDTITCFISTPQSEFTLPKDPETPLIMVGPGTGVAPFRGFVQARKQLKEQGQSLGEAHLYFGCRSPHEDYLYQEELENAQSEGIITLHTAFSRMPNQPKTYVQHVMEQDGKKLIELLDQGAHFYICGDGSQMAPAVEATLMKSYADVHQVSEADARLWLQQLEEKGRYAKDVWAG
Description: Substrate Binding and NADPH Consumption Assays. Substrate binding was followed in a Hewlett-Packard 8452A diode array spectrophotometer, equipped with a Hewlett-Packard peltier temperature controller 89090 by monitoring the increase in the high spin band of the haem at 390 nm, upon titration with different substrates. The dissociation constant Kd was calculated by fitting the obtained data to the equation [ES]=((ΔA390-ΔA421)max·[S]free)/(Kd+[S]free) where [ES]=(ΔA390-ΔA421)/(ΔA392-ΔA421)max·[P450 BM3] and [S]free=[S]added−[ES].
(§1) NADPH consumption was followed at 340 nm using a Δε340=6.22 mM^−1·cm^−1. Both assays were performed at 20° C. using P450 BM3 in 100 mM potassium phosphate buffer, pH 8.0. Reaction was initiated by addition to the substrate bound enzyme of NADPH to a final concentration of 130-150 μM. In the kinetics assay the rate constant kcat was calculated from the linear part of the decrease in A340 with time, which lasted at least for the first 4 sec. The enzyme concentration typically varied between 0.4 and 0.8 μM in the binding assay and between 8 and 25 nM in the catalytic assay. Substrate stock solutions were freshly prepared the day of the assay. Fatty acid stock solutions were in 50 mM potassium carbonate, SDS was easily dissolved in water, while TCE stock solutions were prepared in ethanol. If appropriate, stocks of candidate agents may be prepared in, for example, N,N-dimethylformamide just before the assay. […] The confidence interval for Kd given in the results section is the mean±the standard deviation of at least four measurements, as calculated using the software Kaleidagraph. Similarly kcat was calculated by fitting data points to the Michaelis-Menten equation. Each data point is the mean of at least four measurements.

cytochrome P450 BM3 [2] = target: T1, cytochrome P450 BM3; assay: Hydrogen peroxide determination (uncoupling) by HRP/ABTS assay, purified enzyme; format: biochemical, Bacillus megaterium; design: expressed in transfected cells; host or cells: E. coli BL21(DE3) transformed with pT7Bm3Z; conditions: 150 μM NADPH
Description: Hydrogen Peroxide Determination. Uncoupled reactions were determined by measuring the production of hydrogen peroxide during substrate turnover using the horseradish peroxidase (HRP)/2′2-Azino-di(3-ethyl-benzathiazoline-6-sulphonic acid) (ABTS) assay as described by Childs and Bardsley (31). The extinction coefficient at 414 nm of the radical cation of ABTS was calculated to 32.95 mM^−1 cm^−1, in accordance with the published value. The assay mixture composition was essentially similar to that utilised during the substrate-dependent NADPH consumption assay (20-30 nM P450 BM3 in 100 mM potassium phosphate buffer pH 8.0, 150 μM NADPH, and at least 1.7 times higher substrate concentration relative to NADPH concentration). When all NADPH was consumed (as judged from the disappearance of the 340 nm peak) the hydrogen peroxide produced was measured. Uncoupling in whole cells was measured following essentially the same assay in whole cells in 100 mM potassium phosphate buffer pH 8.0 incubated with substrate and NADPH as in the alkali method.

cytochrome P450 BM3 [3] = target: T1, cytochrome P450 BM3; assay: Alkali assay of NADP+ production in whole E.coli BL21(DE3) cells expressing P450 BM3 (in vivo assay); conditions: for R (Remark): substrate or no-interaction with P450 BM3; for Vmax: alkali assay; for Vmax / time at which the plateau of the A360 alkali product curve is reached: NADPH 1.5 mM; for time at which the plateau of the A360 alkali product curve is reached: substrate concentration about 0.8 mM; for substrate concentration above which the linear region of NADPH oxidation was found in the first 25 min: ~0-25 min after NADPH addition
Description: The hydroxylating activity of whole cells expressing cytochrome P450 BM3 was measured in terms of NADP^+ production. […] The assay has been adapted in a microtitre plate format as follows. A single colony from freshly transformed E.coli BL21(pT7Bm3Z) cells was inoculated into 170 μl LB/ampicillin (120 μg/ml) in a microtitre plate well. Cells were grown to an OD600˜0.8 before being induced with 1 mM IPTG. After incubation at 37° C. for 16 hours after induction, the cells were harvested and washed once with 100 mM potassium phosphate buffer pH 8.0. The cell pellet was stored in the −20° C. freezer before running the alkali test within the next few days. The cell pellet was then resuspended at 1:1.3 dilution in 100 mM potassium phosphate buffer pH 8.0. to give an OD600 of about 0.4, to which the substrate at the desired concentration was added (stock solutions of substrates as described for the binding and catalytic assays). A control consisting of cells in phosphate buffer added with the same amount of potassium carbonate solution or ethanol or N,N-dimethylformamide, without substrate was run for every sample. All samples were incubated at room temperature overnight. NADPH at 1.5 mM was then added to the samples and at 1 h after NADPH addition, an aliquot (typically 70 μl) was transferred in a new microtitre plate to which was added the same volume (typically 70 μl) of 0.3 M HCl, so that the final pH in the mixture is about 2. The aliquots were incubated for at least 10 min at room temperature, to ensure complete destruction of the remaining reduced NADPH. An aliquot (typically 70 μl) was then removed and transferred in a new microtitre plate with 280 μl of 9 M NaOH to yield a solution of a pH of about 14.8. The mixture was immediately mixed thoroughly and placed in the dark. The product was left to develop in dark for at least 2.5 h at room temperature, after which the absorbance at 360 nm or the emission at 455 nm (λex=360 nm) was measured.

cytochrome P450 BM3 [4] = target: T1, cytochrome P450 BM3; assay: Substrate-dependent NADPH consumption assay at 340 nm, purified enzyme (in vitro); format: biochemical, Bacillus megaterium; design: expressed in transfected cells; host or cells: E. coli BL21(DE3) transformed with pT7Bm3Z; conditions: NADPH 130-150 μM, 20° C., pH 8.0
Description: as §1

[5] = 20° C., 100 mM potassium phosphate buffer pH 8.0, read-out: Kd

SMILES	toxicity to E.coli BL21(DE3) cells (E.coli BL21(DE3) cells)	concentration above which the substrate has a lethal effect on whole cells (E.coli BL21(DE3) cells; E.coli BL21(DE3) cells expressing P450 BM3)	Kd (cytochrome P450 BM3 [1]; printed as an order-of-magnitude range in M, read-out: Kd)	% H2O2 (cytochrome P450 BM3 [2])	R (Remark) (cytochrome P450 BM3 [3])	Kd (cytochrome P450 BM3 [1]; [5])	Vmax (cytochrome P450 BM3 [3]; whole cells)	time at which the plateau of the A360 alkali product curve is reached (cytochrome P450 BM3 [3]; whole cells)	substrate concentration above which the linear region of NADPH oxidation was found in the first 25 min (cytochrome P450 BM3 [3]; whole cells)	ratio of sample A360 signal/blank signal (cytochrome P450 BM3 [3]; whole cells, SDS supplied periodically, 1.5 h after NADPH addition)	Kd (cytochrome P450 BM3 [1]; 20° C., 100 mM potassium phosphate buffer pH 8.0)	KM (cytochrome P450 BM3 [4])	kcat (cytochrome P450 BM3 [4])
CCCCC/C=C\C/C=C\C/C=C\C/C=C\CCCC(=O)O [AA, arachidonic acid]	relatively high toxicity	higher than 170 μM	~0.1 µM	0.11%	S								
CCCCCCCCCCCC(=O)O [LA, lauric acid]				0.66%	S	135 ± 38.2 µM	10.26 ± 0.87 nM NADP^+/min	7 h	higher than 200 μM				
CCCCCCCCCCCCOS(=O)(=O)[O-].[Na+] [SDS, sodium dodecyl sulphate]				0.63%	S	11.5 ± 3.7 µM	18.19 ± 1.12 nM NADP^+/min	3.5 h	higher than 300 μM	about 30			
ClC(Cl)C(Cl)Cl [TCE, 1,1,2,2-tetrachloroethane]				0%	S	4010 ± 830 µM							
CCCCCC [n-hexane]					N						n.o.	n.o.	n.o.
